Experimental data published in patent US20120208781A1, “AMINOGLYCOSIDE DOSING REGIMENS” (Achaogen, Inc., priority 2009, published 2012).
≈ marks a conversion by molar mass, not a printed value. Where two headings read alike, the source gives them in different places.

Key:
[1] = system: glomerular filtration rate; assay: First-in-human phase 1 study: renal function (BUN, Cr, iothalamate GFR); assay type: in vivo; conditions: healthy volunteers
Method: Safety evaluation was based on clinical observations, vital sign measurements, laboratory tests, physical examination, electrocardiogram, cochlear function, vestibular function testing, and reported adverse events. Cochlear function was evaluated by pure tone audiometry with bone conduction and otoacoustic emission (OAE) testing. Vestibular function was evaluated by electronystagmography (ENG) and Dynamic Visual Acuity (DVA) test. Laboratory tests included complete blood count (CBC), serum chemistries, and urinalysis. BUN and creatinine (Cr) were assessed daily on dosing days to allow the Investigator to monitor renal function. Results were used as criteria for dose escalation. The glomerular filtration rate (GFR) was estimated using iothalamate plasma measurements before dosing and after the multiple dose periods. GFR was also assessed by Cr clearance before dosing and after the multiple dose periods.
Iothalamate was infused the day prior to the single-dose and prior to the first multiple-dose and the day after the last multiple-dose. Blood samples for iothalamate analysis for GFR calculation were obtained prior to the start of the iothalamate infusion and the following hours after the start of the infusion: 1, 2, 4, and 8.

Acinetobacter spp. (ACB) = assay: MIC, CLSI broth microdilution, worldwide isolates: Acinetobacter spp.; assay type: cell-based
Excerpt: (§1) In the first study, a total of 235 isolates were collected from medical centers worldwide and tested for susceptibility to Compound 1 and comparator agents by CLSI broth microdilution methods. […] Non-ENT GN pathogens included WT P. aeruginosa (PSA) and Acinetobacter spp. (ACB), and carbapenem (CARB)-R strains, including those with MBL and OXA enzymes, SA and coagulase-negative staphylococci (CoNS) included oxacillin-susceptible (MSSA/MS-CoNS) and —R (MRSA/MR-CoNS) strains.
(§2) Minimum inhibitory concentrations (MIC) were determined by reference Clinical and Laboratory Standards Institute (CLSI) broth microdilution methods per M7-A7 [2006]. Briefly, serial two-fold dilutions of Compound 1 and comparator AGs (together, “the test compounds”) were prepared at 2× concentration in appropriate diluent. The dilutions were mixed in 96-well assay plates with bacterial inoculum. Bacteria were suspended in sterile saline and added to each assay plate to obtain a final concentration of 5.5×10^5 CFU/mL. The plates were incubated at 35° C. for 20 hours in ambient air. […] After incubation, assay plates were read using a microtiter plate reader at 600 nm.

[2] = Pharmacokinetics of Compound 1 after single bolus IV injection in mice; assay type: in vivo, CD-1 mice; conditions: 10 mg/kg single bolus IV; for C0: 10 mg/kg
Method: Male CD-1 mice, Sprague Dawley rats, and beagle dogs were administered Compound 1 intravenously. Compound 1 was preformulated as a sterile isotonic solution of 10 mg/mL in PBS. Specifically, male CD-1 mice were administered a single bolus IV injection of the Compound at 10 mg/kg, via a bolus IV injection into the tail vein. Two blood samples per mouse were collected by retro-orbital puncture into tubes containing the anticoagulant K2EDTA prior to dosing and at 0.033, 0.083, 0.25, 0.5, 1 and 24 hours. Rats were administered Compound 1 at 10 mg/kg via a bolus IV injection into the tail vein. Twelve blood samples per rat were collected via a jugular vein cannula into tubes containing the anticoagulant K2EDTA at various timepoints (i.e., 0.033, 0.083, 0.25, 0.5, 1, 2, 4, 6, 8, 10, 12, and 24 hours). Male beagle dogs were administered Compound 1 at 10 mg/kg through a temporary percutaneous catheter placed in a peripheral vein. Whole blood samples (0.5 mL) were collected from each dog prior to dosing and at 0.033, 0.083, 0.25, 0.5, 1, 2, 4, 6, 8, and 24 hours via direct venipuncture of a jugular or cephalic vein into tubes containing the anticoagulant K2EDTA. A sparse sampling method was employed to conserve animals and provide the best data possible from fewer mice. Samples were centrifuged, and plasma was collected and transferred into a new tube and frozen at −80° C. until they were analyzed.
Blood, urine, and kidney samples collected over 24 hours were analyzed for Compound 1 levels using LC-MS/MS. Method performance was acceptable in the concentration ranges necessary to determine plasma levels. Compound 1 plasma concentrations were determined by comparing Compound 1 concentration in the sample to a standard curve derived from LC-MS/MS measurements of the analyte. The standard curve fit was linear with a 1/x^2 weighting.
Bioanalytical data analyses were carried out using Analyst software (version 1.4.1, Applied Biosystems, Toronto, ON, Canada). […] PK parameters were determined by noncompartmental analysis using WinNonLin. Plasma protein binding was determined using equilibrium dialysis. In vitro stability was determined using commercially available plasma, microsomes and hepatocytes.

P. aeruginosa (PSA) = assay: MIC, CLSI broth microdilution, worldwide isolates: P. aeruginosa; assay type: cell-based
Excerpt: as §1, §2

[3] = Pseudomonas aeruginosa, PSA isolates

SMILES: CN[C@@H]1[C@@H](O)[C@@H](O[C@@H]2[C@@H](O)[C@H](O[C@H]3OC(CNCCO)=CC[C@H]3N)[C@@H](N)C[C@H]2NC(=O)[C@@H](O)CCN)OC[C@]1(C)O [Compound 1, 6′-(2-Hydroxy-ethyl)-1-(4-amino-2(S)-hydroxy-butyryl)-sisomicin]
- iothalamate plasma measurements (GFR) [1]: did not change
- Cumulative % inhibited at Cmpd. MIC 1 (Acinetobacter spp. (ACB); ACB (30)): 10.0%
- Cumulative % inhibited at Cmpd. MIC 2 (Acinetobacter spp. (ACB); ACB (30)): 23.3%
- Cumulative % inhibited at Cmpd. MIC 4 (Acinetobacter spp. (ACB); ACB (30)): 26.7%
- Cumulative % inhibited at Cmpd. MIC 8 (Acinetobacter spp. (ACB); ACB (30)): 66.7%
- Cumulative % inhibited at Cmpd. MIC 16 (Acinetobacter spp. (ACB); ACB (30)): 70.0%
- Cumulative % inhibited at Cmpd. MIC 32 (Acinetobacter spp. (ACB); ACB (30)): 90.0%
- Cumulative % inhibited at Cmpd. MIC 64 (Acinetobacter spp. (ACB); ACB (30)): 100.0%
- Cumulative % inhibited at Cmpd. MIC ≦0.5 (Acinetobacter spp. (ACB); ACB (30)): 3.3%
- Cumulative % inhibited at Cmpd. MIC 1 (Acinetobacter spp. (ACB); ACB, CARB-R (20)): 15.0%
- Cumulative % inhibited at Cmpd. MIC 2 (Acinetobacter spp. (ACB); ACB, CARB-R (20)): 30.0%
- Cumulative % inhibited at Cmpd. MIC 4 (Acinetobacter spp. (ACB); ACB, CARB-R (20)): 30.0%
- Cumulative % inhibited at Cmpd. MIC 8 (Acinetobacter spp. (ACB); ACB, CARB-R (20)): 70.0%
- Cumulative % inhibited at Cmpd. MIC 16 (Acinetobacter spp. (ACB); ACB, CARB-R (20)): 75.0%
- Cumulative % inhibited at Cmpd. MIC 32 (Acinetobacter spp. (ACB); ACB, CARB-R (20)): 95.0%
- Cumulative % inhibited at Cmpd. MIC 64 (Acinetobacter spp. (ACB); ACB, CARB-R (20)): 100.0%
- Cumulative % inhibited at Cmpd. MIC ≦0.5 (Acinetobacter spp. (ACB); ACB, CARB-R (20)): 5.0%
- Cumulative % inhibited at Cmpd. MIC 1 (Acinetobacter spp. (ACB); ACB, WT (10)): 0.0%
- Cumulative % inhibited at Cmpd. MIC 2 (Acinetobacter spp. (ACB); ACB, WT (10)): 10.0%
- Cumulative % inhibited at Cmpd. MIC 4 (Acinetobacter spp. (ACB); ACB, WT (10)): 20.0%
- Cumulative % inhibited at Cmpd. MIC 8 (Acinetobacter spp. (ACB); ACB, WT (10)): 60.0%
- Cumulative % inhibited at Cmpd. MIC 16 (Acinetobacter spp. (ACB); ACB, WT (10)): 60.0%
- Cumulative % inhibited at Cmpd. MIC 32 (Acinetobacter spp. (ACB); ACB, WT (10)): 80.0%
- Cumulative % inhibited at Cmpd. MIC 64 (Acinetobacter spp. (ACB); ACB, WT (10)): 100.0%
- Cumulative % inhibited at Cmpd. MIC ≦0.5 (Acinetobacter spp. (ACB); ACB, WT (10)): 0.0%
- MIC50 (Acinetobacter spp. (ACB); Acinetobacter, ACB isolates): 8 µg/mL (≈ 13.5 µM)
- MIC90 (Acinetobacter spp. (ACB); Acinetobacter, ACB isolates): 32 µg/mL (≈ 54 µM)
- C0 [2]: 87.6 µg/mL
- AUC(0-inf) ([2]; male, CD-1, mouse, plasma): 18500 ng·h/mL
- clearance ([2]; male, CD-1, mouse, plasma): 9.02 mL/min/kg
- half-life ([2]; male, CD-1, mouse, plasma): 84 min
- MRT inf ([2]; male, CD-1, mouse, plasma, read-out: MRT0-∞): 36 min
- Vd ([2]; male, CD-1, mouse, plasma, read-out: Vss): 0.34 L
- Vd ([2]; male, CD-1, mouse, plasma, read-out: volume of distribution at steady state (Vss)): 0.34 L/kg
- C0 ([2]; male, CD-1, mouse, plasma, iv, read-out: C0): 88 µg/mL
- Cumulative % inhibited at Cmpd. MIC 1 (P. aeruginosa (PSA); PSA (30)): 3.3%
- Cumulative % inhibited at Cmpd. MIC 2 (P. aeruginosa (PSA); PSA (30)): 3.3%
- Cumulative % inhibited at Cmpd. MIC 4 (P. aeruginosa (PSA); PSA (30)): 30.0%
- Cumulative % inhibited at Cmpd. MIC 8 (P. aeruginosa (PSA); PSA (30)): 50.0%
- Cumulative % inhibited at Cmpd. MIC 16 (P. aeruginosa (PSA); PSA (30)): 76.7%
- Cumulative % inhibited at Cmpd. MIC 32 (P. aeruginosa (PSA); PSA (30)): 96.7%
- Cumulative % inhibited at Cmpd. MIC 64 (P. aeruginosa (PSA); PSA (30)): 96.7%
- Cumulative % inhibited at Cmpd. MIC >64 (P. aeruginosa (PSA); PSA (30)): 100.0%
- Cumulative % inhibited at Cmpd. MIC ≦0.5 (P. aeruginosa (PSA); PSA (30)): 0.0%
- Cumulative % inhibited at Cmpd. MIC 1 (P. aeruginosa (PSA); PSA, CARB-R (20)): 0.0%
- Cumulative % inhibited at Cmpd. MIC 2 (P. aeruginosa (PSA); PSA, CARB-R (20)): 0.0%
- Cumulative % inhibited at Cmpd. MIC 4 (P. aeruginosa (PSA); PSA, CARB-R (20)): 10.0%
- Cumulative % inhibited at Cmpd. MIC 8 (P. aeruginosa (PSA); PSA, CARB-R (20)): 25.0%
- Cumulative % inhibited at Cmpd. MIC 16 (P. aeruginosa (PSA); PSA, CARB-R (20)): 65.0%
- Cumulative % inhibited at Cmpd. MIC 32 (P. aeruginosa (PSA); PSA, CARB-R (20)): 95.0%
- Cumulative % inhibited at Cmpd. MIC 64 (P. aeruginosa (PSA); PSA, CARB-R (20)): 95.0%
- Cumulative % inhibited at Cmpd. MIC >64 (P. aeruginosa (PSA); PSA, CARB-R (20)): 100.0%
- Cumulative % inhibited at Cmpd. MIC ≦0.5 (P. aeruginosa (PSA); PSA, CARB-R (20)): 0.0%
- Cumulative % inhibited at Cmpd. MIC 1 (P. aeruginosa (PSA); PSA, WT (10)): 10.0%
- Cumulative % inhibited at Cmpd. MIC 2 (P. aeruginosa (PSA); PSA, WT (10)): 10.0%
- Cumulative % inhibited at Cmpd. MIC 4 (P. aeruginosa (PSA); PSA, WT (10)): 70.0%
- Cumulative % inhibited at Cmpd. MIC 8 (P. aeruginosa (PSA); PSA, WT (10)): 100.0%
- Cumulative % inhibited at Cmpd. MIC ≦0.5 (P. aeruginosa (PSA); PSA, WT (10)): 0.0%
- MIC50 (P. aeruginosa (PSA); [3]): 8 µg/mL (≈ 13.5 µM)
- MIC90 (P. aeruginosa (PSA); [3]): 32 µg/mL (≈ 54 µM)
